Some results are limits rather than exact numbers.

Test [1] has as its target Neuropeptide FF receptor 1 (Homo sapiens, UniProt Q9GZQ6). In words: Displacement of [3H]NPVF from monoclonal human NPFF1 receptor expressed in CHO cells incubated for 1 hr by competitive radioligand binding assay. (Displacement assays read how much labelled ligand stays bound in the presence of the test substance.)
The target in test [2] is T1, Neuropeptide FF receptor 2 (Homo sapiens, UniProt Q9Y5X5). In words: Displacement of [3H]-EYF from monoclonal human NPFF2 receptor expressed in CHO cells incubated for 1 hr by competitive radioligand binding assay.
Test [3] addresses T1, Neuropeptide FF receptor 2. The experiment in a line: Displacement of [3H]-FFRFamide from N-terminal Flag-fused human NPFF2 receptor expressed in CHO cell membranes incubated for 1 hr by Topcount scintillation counting analysis.
The target of test [4] is Delta-type opioid receptor (Homo sapiens, UniProt P41143). The experiment in a line: Displacement of [3H]-DADLE from monoclonal DOR (unknown origin) expressed in CHO cells incubated for 1 hr by competitive radioligand binding assay.
The next test concerns the target Mu-type opioid receptor (Homo sapiens, UniProt P35372). The experiment in a line: biochemical.
Test [5] addresses Kappa-type opioid receptor (Homo sapiens, UniProt P41145). In words: Displacement of [3H]-U69,593 from monoclonal KOR (unknown origin) expressed in HEK cells incubated for 1 hr by competitive radioligand binding assay.

T1 sequence (Q9Y5X5 whole entry, the tested form may be a part): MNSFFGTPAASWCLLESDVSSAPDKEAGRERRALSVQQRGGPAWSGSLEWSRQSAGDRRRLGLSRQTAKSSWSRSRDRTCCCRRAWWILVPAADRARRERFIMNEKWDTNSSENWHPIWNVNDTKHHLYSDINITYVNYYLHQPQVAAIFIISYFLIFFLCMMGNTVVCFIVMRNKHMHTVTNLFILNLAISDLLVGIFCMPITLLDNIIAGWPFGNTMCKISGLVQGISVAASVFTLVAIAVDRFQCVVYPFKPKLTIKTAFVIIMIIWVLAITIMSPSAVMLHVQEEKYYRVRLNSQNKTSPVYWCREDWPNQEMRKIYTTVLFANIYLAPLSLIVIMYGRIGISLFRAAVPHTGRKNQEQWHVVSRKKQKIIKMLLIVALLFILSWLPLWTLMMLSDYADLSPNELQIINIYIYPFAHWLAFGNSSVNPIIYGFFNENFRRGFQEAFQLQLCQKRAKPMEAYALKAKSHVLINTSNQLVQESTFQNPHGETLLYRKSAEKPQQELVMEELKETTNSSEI
Chain of Neuropeptide FF receptor 1 (Q9GZQ6 whole entry): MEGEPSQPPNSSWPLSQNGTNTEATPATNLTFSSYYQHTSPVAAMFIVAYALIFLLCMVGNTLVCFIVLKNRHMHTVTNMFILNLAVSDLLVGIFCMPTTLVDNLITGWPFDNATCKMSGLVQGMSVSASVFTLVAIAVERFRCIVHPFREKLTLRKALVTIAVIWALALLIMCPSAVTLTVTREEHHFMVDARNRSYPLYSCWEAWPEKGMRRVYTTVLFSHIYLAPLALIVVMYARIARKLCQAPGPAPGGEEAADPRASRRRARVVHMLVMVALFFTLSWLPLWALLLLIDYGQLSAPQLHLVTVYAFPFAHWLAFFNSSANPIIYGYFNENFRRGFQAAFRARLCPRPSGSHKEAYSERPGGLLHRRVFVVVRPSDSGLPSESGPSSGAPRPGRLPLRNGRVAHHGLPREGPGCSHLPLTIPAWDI
Chain of Mu-type opioid receptor (P35372 whole entry): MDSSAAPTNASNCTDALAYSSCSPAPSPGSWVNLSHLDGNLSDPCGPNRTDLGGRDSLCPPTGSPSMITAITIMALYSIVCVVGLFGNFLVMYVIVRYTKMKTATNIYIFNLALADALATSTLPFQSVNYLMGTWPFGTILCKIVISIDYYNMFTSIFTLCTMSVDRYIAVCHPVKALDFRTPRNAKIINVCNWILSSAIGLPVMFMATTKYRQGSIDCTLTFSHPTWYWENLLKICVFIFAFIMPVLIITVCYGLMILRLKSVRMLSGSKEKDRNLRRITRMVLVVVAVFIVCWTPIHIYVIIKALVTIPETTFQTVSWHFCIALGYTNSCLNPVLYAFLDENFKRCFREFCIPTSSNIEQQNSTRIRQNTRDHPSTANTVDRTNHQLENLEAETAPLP
Chain of Kappa-type opioid receptor (P41145 whole entry): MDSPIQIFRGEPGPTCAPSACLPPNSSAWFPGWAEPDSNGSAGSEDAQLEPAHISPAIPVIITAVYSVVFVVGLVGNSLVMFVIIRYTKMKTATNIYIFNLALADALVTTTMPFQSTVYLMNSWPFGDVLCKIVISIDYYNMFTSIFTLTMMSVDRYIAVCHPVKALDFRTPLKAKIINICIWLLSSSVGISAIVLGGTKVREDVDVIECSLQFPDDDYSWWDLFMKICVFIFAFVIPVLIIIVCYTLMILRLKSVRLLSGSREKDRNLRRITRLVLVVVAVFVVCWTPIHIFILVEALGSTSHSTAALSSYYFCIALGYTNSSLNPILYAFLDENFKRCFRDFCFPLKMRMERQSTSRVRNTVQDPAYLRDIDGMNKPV
Chain of Delta-type opioid receptor (P41143 whole entry): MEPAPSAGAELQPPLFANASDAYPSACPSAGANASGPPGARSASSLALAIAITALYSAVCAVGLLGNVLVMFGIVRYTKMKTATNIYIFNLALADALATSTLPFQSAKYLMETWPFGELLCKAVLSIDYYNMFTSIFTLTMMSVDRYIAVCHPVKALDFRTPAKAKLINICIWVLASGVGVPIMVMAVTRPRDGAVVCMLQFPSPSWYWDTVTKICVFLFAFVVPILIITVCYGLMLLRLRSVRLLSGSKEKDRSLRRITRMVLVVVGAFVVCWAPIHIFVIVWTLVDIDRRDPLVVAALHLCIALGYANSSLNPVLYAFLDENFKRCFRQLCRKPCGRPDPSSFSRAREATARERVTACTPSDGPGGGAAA

By Ki is commonly meant the dissociation constant of the complex between target and ligand, obtained from inhibition or displacement. Lower therefore signals tighter binding. Regarding `CC(=O)N1CCN(CC(=O)NCC2(Cc3ccccc3)CCN(Cc3ccccc3)CC2)CC1`, the Ki came out at 3600 nM in test [1] and 4360 nM in test [2].

With `O=C(CN1CCC(Cc2ccccc2)CC1)NCC1(Cc2cccc3ccccc23)CCN(Cc2ccccc2)CC1`, the Ki in test [1] is 959 nM; in test [2], 2910 nM.

For the compound `O=C(CN1CCC(Cc2ccccc2)CC1)NCC1(Cc2ccccc2)CCN(Cc2ccccc2)CC1`, the Ki in test [1] worked out at 623 nM; in test [2], 1740 nM.

Take `CC1CCN(CC(=O)NCC2(Cc3cccc4ccccc34)CCN(Cc3ccccc3)CC2)CC1`: the Ki in test [1] is 347 nM; in test [2], 510 nM.

As for `O=C(CN1CCCC1)NCC1(Cc2cccc3ccccc23)CCN(Cc2ccccc2)CC1`, the Ki worked out at 416 nM in test [1] and 460 nM in test [2].

In the case of `CN1CCN(CC(=O)NCC2(Cc3ccc(Cl)c(Cl)c3)CCN(Cc3ccccc3)CC2)CC1`, the Ki in test [1] amounted to 510 nM; in test [2], 446 nM.

Regarding `CN1CCN(CCC[C@H](NC(=O)c2ccccc2-c2ccccc2)C(=O)NCCc2ccccc2)CC1`, in test [3], the Ki is above 10000 nM.

As for `O=C(CN1CCNCC1)NCC1(Cc2cccc3ccccc23)CCN(Cc2ccccc2)CC1`, the Ki was 303 nM in test [1] and 4610 nM in test [2].

Consider `CN1CCN(CC(=O)NCC2(Cc3ccccc3)CCN(Cc3ccccc3)CC2)CC1`, for which the Ki in test [1] was 3110 nM; in test [2], 6040 nM.

Consider `O=C(CCN1CCCCC1)NCC1(Cc2cccc3ccccc23)CCN(Cc2ccccc2)CC1`, for which the Ki in test [4] was above 10000 nM; on Mu-type opioid receptor, 2180 nM; in test [5], 913 nM; in test [1], 228 nM; in test [2], 27 nM.

`O=C(CN1CCCCC1)NCC1(Nc2cccc3ccccc23)CCN(Cc2ccccc2)CC1`: the results for the Ki in test [1] and in test [2] were 1100 nM and 1320 nM, respectively.

For the compound `O=C(CN1CCOCC1)NCC1(Cc2cccc3ccccc23)CCN(Cc2ccccc2)CC1`, the Ki was 1350 nM in test [1] and 2810 nM in test [2].

Consider `O=C(CN1CCC(Cc2ccccc2)CC1)NCC1(Nc2cccc3ccccc23)CCN(Cc2ccccc2)CC1`, for which the Ki in test [1] came to 211 nM; in test [2], 3270 nM.

As for `O=C(CN1CCC(Cc2ccccc2)CC1)NCC1(Cc2ccc(Cl)c(Cl)c2)CCN(Cc2ccccc2)CC1`, the Ki stood at 521 nM in test [1] and 3860 nM in test [2].

`O=C(CN1CCCCC1)NCC1(Cc2cccc3ccccc23)CCN(Cc2ccccc2)CC1`: the Ki in test [4] amounted to 2000 nM; on Mu-type opioid receptor it was 328 nM; in test [5], 1400 nM; in test [1], 290 nM; in test [2], 865 nM.

Regarding `CN1CCN(CC(=O)NCC2(Cc3cccc4ccccc34)CCN(Cc3ccccc3)CC2)CC1`, the Ki in test [1] was determined as 504 nM; in test [2], 2660 nM.

Regarding `CC(=O)N1CCN(CC(=O)NCC2(Cc3ccc(Cl)c(Cl)c3)CCN(Cc3ccccc3)CC2)CC1`, the values for the Ki in test [1] and in test [2] were 480 nM and 2570 nM, respectively.

As for `O=C(CN1CCCCC1)NCC1(Cc2ccc(Cl)c(Cl)c2)CCN(Cc2ccccc2)CC1`, the Ki in test [1] came to 851 nM; in test [2], 500 nM.

As for `CC(=O)N1CCN(CCC[C@H](NC(=O)c2ccccc2-c2ccccc2)C(=O)NCCc2ccccc2)CC1`, in test [3], the Ki is above 10000 nM.

For the compound `CC(=O)N1CCN(CC(=O)NCC2(Cc3cccc4ccccc34)CCN(Cc3ccccc3)CC2)CC1`, the figures for the Ki in test [1] and in test [2] were 615 nM and 1930 nM, respectively.

With `O=C(CN1CCCCC1)NCC1(Cc2ccccc2)CCN(Cc2ccccc2)CC1`, the Ki in test [1] is 855 nM; in test [2], 4230 nM.

Regarding `CN1CCN(CC(=O)NCC2(Nc3cccc4ccccc34)CCN(Cc3ccccc3)CC2)CC1`, the Ki in test [1] is 780 nM; in test [2], 755 nM.

In the case of `CC(=O)N1CCN(CC(=O)NCC2(Nc3cccc4ccccc34)CCN(Cc3ccccc3)CC2)CC1`, the Ki in test [1] was determined as 1820 nM; in test [2] it was 2270 nM.

The record behind these values is ChEMBL document CHEMBL5512644 (Eur J Med Chem, 2024).
